# Experimental data: publication PMC6588349 (eLife, 2019)
# Where two headings read alike, the source gives them in different places.
# Biological target: T1, SNAP-mGluR2-R57A (Rattus norvegicus, UniProt P31421, R57A)
# T1 construct: expressed in transfected cells; host or cells: HEK 293T
# Assay: GIRK activation assay, whole cell patch clamp, SNAP-mGluR2-R57A
# Type: cell-based
# Protocol: Cells were cultured in DMEM with 5% FBS on poly-L-lysine-coated glass coverslips. DNA plasmids were transfected into cells using Lipofectamine 3000 (Thermo Fisher). […] For single-molecule pulldown (SiMPull) experiments, cells were transfected with 0.7 μg DNA of HA and SNAP-tagged receptor constructs, unless otherwise noted. For FRET experiments, cells were transfected with either SNAP-tagged constructs at 0.5–0.7 μg of DNA/well or SNAP and CLIP-tagged constructs at a ratio of 1:2 with 0.3 μg of SNAP DNA/well.
# Whole-cell patch clamp recordings from single isolated cells were performed 24–36 hr after transfection in a high-potassium extracellular solution containing (in mM): 120 KCl, 29 NaCl, 1 MgCl2, 2 CaCl2 and 10 HEPES, pH 7.4. Cells were voltage clamped to −60 mV using an Axopatch 200B amplifier (Axon Instruments) and membrane currents were recorded. Glass pipettes of resistance between 3 and 8 MΩ were filled with intracellular solution containing (in mM): 140 KCl, 10 HEPES, 3 Na2ATP, 0.2 Na2GTP, 5 EGTA and 3 MgCl2, pH 7.4. Data were acquired with a 2 kHz acquisition rate and filtered with the amplifier 4-pole Bessel filter at 1 kHz. Drugs were prepared in extracellular solution and applied using a gravity-driven perfusion system. Data were analyzed with Clampfit (Molecular Devices) and Prism (GraphPad). Data for all conditions came from at least two separate transfections.
# T1 sequence (P31421 19-872 R57A): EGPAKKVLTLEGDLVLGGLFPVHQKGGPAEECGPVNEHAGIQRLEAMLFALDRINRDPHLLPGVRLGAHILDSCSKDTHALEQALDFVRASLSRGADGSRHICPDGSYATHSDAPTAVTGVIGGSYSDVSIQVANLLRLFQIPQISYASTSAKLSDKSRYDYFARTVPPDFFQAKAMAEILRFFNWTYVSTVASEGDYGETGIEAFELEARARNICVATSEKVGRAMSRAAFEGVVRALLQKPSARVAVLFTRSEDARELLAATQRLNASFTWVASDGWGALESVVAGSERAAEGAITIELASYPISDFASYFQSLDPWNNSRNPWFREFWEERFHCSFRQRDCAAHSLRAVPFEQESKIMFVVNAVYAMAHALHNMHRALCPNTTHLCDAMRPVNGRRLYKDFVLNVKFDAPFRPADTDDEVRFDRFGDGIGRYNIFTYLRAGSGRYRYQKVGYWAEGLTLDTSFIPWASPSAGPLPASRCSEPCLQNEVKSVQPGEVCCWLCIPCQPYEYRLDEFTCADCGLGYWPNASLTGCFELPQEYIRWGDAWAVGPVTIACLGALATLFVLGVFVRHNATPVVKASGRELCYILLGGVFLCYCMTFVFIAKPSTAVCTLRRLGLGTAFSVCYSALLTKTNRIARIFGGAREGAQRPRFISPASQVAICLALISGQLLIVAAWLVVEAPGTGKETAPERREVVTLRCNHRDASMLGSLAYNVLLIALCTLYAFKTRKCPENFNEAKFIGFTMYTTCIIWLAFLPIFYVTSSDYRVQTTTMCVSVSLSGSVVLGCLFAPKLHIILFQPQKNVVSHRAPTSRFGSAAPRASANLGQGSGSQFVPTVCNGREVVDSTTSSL
structure (smiles),measurement,setting,value
COc1ccccc1Oc1ccc(N(Cc2cccnc2)S(=O)(=O)CC(F)(F)F)cc1 [LY48],EC50,"SNAP-mGluR2-R57A, normalized to saturating glutamate, mean ± s.e.m., read-out: GIRK activation EC50",290 ± 80 nM
same,EC50,"mGluR2-R57A, read-out: GIRK activation EC50 (approximate)",~300 nM
same,maximal PAM-induced GIRK activation relative to glutamate,"mGluR2-R57A, relative to glutamate",~ 70%
